Laboratory results taken from US20220402935A1, “HETEROCYCLIC COMPOUND” (FIMECS, INC., priority 2019, published 2022).
Where a name gives a salt, the structure may show the parent alone.

Key:
IRAK-M [1] = biological target: T1, IRAK-M (Homo sapiens, UniProt Q9Y616); assay: In vitro degradation activity of target protein (IRAK-M ELISA in THP1 cells); format: cell-based; design: host or cells: THP1 cells; conditions: 24 hours, second symbol of cell, read-out: IRAK-M 50% degradation concentration (DC50 value)
T1 sequence (Q9Y616 1-596): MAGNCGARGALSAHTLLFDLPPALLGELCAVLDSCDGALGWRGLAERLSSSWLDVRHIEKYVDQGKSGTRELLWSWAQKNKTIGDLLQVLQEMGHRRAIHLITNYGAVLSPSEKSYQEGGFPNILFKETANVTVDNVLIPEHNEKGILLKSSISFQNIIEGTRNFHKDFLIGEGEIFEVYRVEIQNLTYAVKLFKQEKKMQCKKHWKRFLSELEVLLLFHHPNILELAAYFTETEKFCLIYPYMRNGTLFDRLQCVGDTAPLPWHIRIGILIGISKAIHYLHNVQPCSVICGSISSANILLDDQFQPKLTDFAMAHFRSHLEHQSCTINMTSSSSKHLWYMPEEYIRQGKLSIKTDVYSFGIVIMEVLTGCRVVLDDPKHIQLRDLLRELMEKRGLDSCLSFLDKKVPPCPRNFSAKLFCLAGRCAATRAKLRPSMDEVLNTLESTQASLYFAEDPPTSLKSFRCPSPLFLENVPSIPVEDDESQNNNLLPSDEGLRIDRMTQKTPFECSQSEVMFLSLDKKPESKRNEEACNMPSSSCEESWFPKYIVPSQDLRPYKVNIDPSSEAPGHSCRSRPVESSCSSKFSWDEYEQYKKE
Description: In vitro degradation activities of target protein of the example compounds were evaluated using Enzyme-linked immuno-sorbent assay (ELISA) by the following assay steps. THP1 cells (ATCC, TIB-202) were cultured in RPMI-1640 supplemented with 10% FBS, lx sodium pyruvate, lx HEPES, D-(+)-glucose and 1% penicillin/streptomycin. THP1 cells were seeded at a density of 1×10^6 cells/well in 24-well plate and treated with DMSO control or test compound, and then incubated for 24 hours. The cells were collected and lysed on ice for 30 minutes in lysis buffer (PBS containing 0.1% Triton X-100) containing a protease inhibitor cocktail (Roche, Cat #11836170001). The lysates were sonicated for 30 sec ON/30 sec OFF for ten cycles and centrifuged for 10 minutes at 13k rpm at 4° C. Protein concentrations were determined by the BCA assay (Sigma, Cat #QPBCA-1KT). The ELISA assay was performed using the Human IRAK3/IRAKM/IRAK-M ELISA Kit (LifeSpan BioSciences, Cat #LS-F35271), and the protein levels of IRAK-M were evaluated according to the kit protocol. As to the IRAK-M degradation rate of test compounds, protein degradation rate (%) when the concentration of the test compound is […] described as A≥75%, 50%≤B<75%, 25%≤C<50%, D<25%, or 50% degradation concentration (DC50 value) described as A<0.03 μM, 0.03 μM≤B<0.1 μM, 0.1 μM≤C<0.3 μM, 0.3 μM≤D<1 μM, is shown in the table below.

[2] = biological target: T2, human XIAP_BIR3 domain purified protein (Homo sapiens, UniProt P98170); assay: XIAP binding inhibitory activity (HTRF, b-Smac ligand); conditions: second symbol of cell; read-out: XIAP binding inhibition IC50 value
T2 construct: purchased R & D
T2 sequence (P98170 252-356 limits assumed): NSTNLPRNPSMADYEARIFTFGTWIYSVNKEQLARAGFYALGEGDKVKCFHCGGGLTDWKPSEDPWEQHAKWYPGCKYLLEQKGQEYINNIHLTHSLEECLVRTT
Procedure, shortened: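 HTRF competition between compound and C-terminally biotinylated Smac peptide AVPIAQK for His-tagged XIAP BIR3, both diluted to 90 nM before addition, in pH 7.5 HEPES/NaCl/BSA/Triton buffer. Eu-cryptate anti-His and streptavidin-XL665 added, ≥4 h at room temperature in the dark; inhibition % from 665/615 nm ratio versus no-compound wells.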

IRAK-M [3] = biological target: T1, IRAK-M; assay: IRAK-M binding inhibitory activity (KINOMEscan active site-dependent competitive assay); design: purchased Eurofins Discover X; conditions: for remaining binding at 1 µM: concentration of the test compound 1 μM, first symbol of cell, read-out: IRAK-M binding inhibition activity % Ctrl
Procedure, shortened: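 Readout given as % Ctrl, with DMSO as 100% and a control compound as 0%, scaling the test compound signal between them. Binding to human IRAK-M was assessed by KINOMEscan competition at the kinase active site.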

Row | DC50 (IRAK-M [1]) [nM] | IC50 [2] [nM] | remaining binding at 1 µM (IRAK-M [3]) [%] | IC50 (IRAK-M [3]; second symbol of cell, read-out: IRAK-M binding inhibition IC50 value) [nM] | SMILES
1 | 300 to 1000 | 3000 to 30000 | 25 to 50 | – | CN[C@@H](C)C(=O)N[C@H](C(=O)N1CCN(C(=O)c2c(Cl)c3ccccc3n2CC(=O)N2CCC[C@H]2COc2cc(CN3CCC(Oc4ccnc5ccsc45)CC3)on2)CC1)C1CCCCC1 [Example 38, (S)-N-((S)-2-(4-(3-chloro-1-(2-oxo-2-((S)-2-(((5-((4-(thieno[3,2-b]pyridin-7-yloxy)piperidin-1-yl)methyl)isoxazol-3-yl)oxy)methyl)pyrrolidin-1-yl)ethyl)-1H-indole-2-carbonyl)piperazin-1-yl)-1-cyclohexyl-2-oxoethyl)-2-(methylamino)propanamide]
2 | 300 to 1000 | 3000 to 30000 | < 25 | – | CN[C@@H](C)C(=O)N[C@H](C(=O)N1CCN(C(=O)c2cc3cc(F)c(F)cc3n2CCOCCOCCOCCOc2cc(CN3CCC(Oc4ccnc5ccsc45)CC3)on2)CC1)C1CCCCC1 [Example 29, (S)-N-((S)-1-cyclohexyl-2-(4-(5,6-difluoro-1-(2-(2-(2-(2-((5-((4-(thieno[3,2-b]pyridin-7-yloxy)piperidin-1-yl)methyl)isoxazol-3-yl)oxy)ethoxy)ethoxy)ethoxy)ethyl)-1H-indole-2-carbonyl)piperazin-1-yl)-2-oxoethyl)-2-(methylamino)propanamide]
3 | 300 to 1000 | 3000 to 30000 | < 25 | – | CN[C@@H](C)C(=O)N[C@H](C(=O)N1CCN(C(=O)c2cc3cc(F)c(F)cc3n2CC(=O)N(C)CCOCCOCCOCCOc2cc(CN3CCC(Oc4ccnc5ccsc45)CC3)on2)CC1)C1CCCCC1 [Example 24, (S)-N-((S)-1-Cyclohexyl-2-(4-(5,6-difluoro-1-(3-methyl-2-oxo-14-((5-((4-(thieno[3,2-b]pyridin-7-yloxy)piperidin-1-yl)methyl)isoxazol-3-yl)oxy)-6,9,12-trioxa-3-azatetradecyl)-1H-indole-2-carbonyl)piperazin-1-yl)-2-oxoethyl)-2-(methylamino)propanamide hydrochloride]
4 | < 30 | 3000 to 30000 | – | 300 to 1000 | CN[C@@H](C)C(=O)N[C@H](C(=O)N1CCN(C(=O)c2cc3cc(F)ccc3n2CC(=O)N2CCC[C@H]2COc2cc(CN3CCC(Oc4ccnc5ccsc45)CC3)on2)[C@@H](C)C1)C1CCCCC1 [Example 28, (S)-N-((S)-1-Cyclohexyl-2-((S)-4-(5-fluoro-1-(2-oxo-2-((S)-2-(((5-((4-(thieno[3,2-b]pyridin-7-yloxy)piperidin-1-yl)methyl)isoxazol-3-yl)oxy)methyl)pyrrolidin-1-yl)ethyl)-1H-indole-2-carbonyl)-3-methylpiperazin-1-yl)-2-oxoethyl)-2-(methylamino)propanamide]
5 | 100 to 300 | 300 to 3000 | < 25 | – | CN[C@@H](C)C(=O)N[C@H](C(=O)N1CCN(C(=O)c2c(C(=O)NCCOCCOCCOc3cc(CN4CCC(Oc5ccnc6ccsc56)CC4)on3)c3cc(F)c(F)cc3n2C)[C@@H](C)C1)C1CCCCC1 [Example 12, 2-((S)-4-((S)-2-cyclohexyl-2-((S)-2-(methylamino)propanamido)acetyl)-2-methylpiperazine-1-carbonyl)-5,6-difluoro-1-methyl-N-(2-(2-(2-((5-((4-(thieno[3,2-b]pyridin-7-yloxy)piperidin-1-yl)methyl)isoxazol-3-yl)oxy)ethoxy)ethoxy)ethyl)-1H-indole-3-carboxamide]
6 | 300 to 1000 | < 300 | < 25 | – | CN[C@@H](C)C(=O)N[C@H](C(=O)N1CCC[C@H]1c1nc(C(=O)c2cccc(OCCOCCOCCOc3cc(CN4CCC(Oc5ccnc6ccsc56)CC4)on3)c2)cs1)C1CCCCC1 [Example 59, (S)-N-((S)-1-cyclohexyl-2-oxo-2-((S)-2-(4-(3-(2-(2-(2-((5-((4-(thieno[3,2-b]pyridin-7-yloxy)piperidin-1-yl)methyl)isoxazol-3-yl)oxy)ethoxy)ethoxy)ethoxy)benzoyl)thiazol-2-yl)pyrrolidin-1-yl)ethyl)-2-(methylamino)propanamide]
7 | 100 to 300 | 300 to 3000 | < 25 | – | CN[C@@H](C)C(=O)N[C@H](C(=O)N1CCN(C(=O)c2cc3c(OCCOCCOCCOCCOc4cc(CN5CCC(Oc6ccnc7ccsc67)CC5)on4)c(F)c(F)cc3n2C)CC1)C1CCCCC1 [Example 51, (S)-N-((S)-1-cyclohexyl-2-(4-(5,6-difluoro-1-methyl-4-(2-(2-(2-(2-((5-((4-(thieno[3,2-b]pyridin-7-yloxy)piperidin-1-yl)methyl)isoxazol-3-yl)oxy)ethoxy)ethoxy)ethoxy)ethoxy)-1H-indole-2-carbonyl)piperazin-1-yl)-2-oxoethyl)-2-(methylamino)propanamide]
8 | 100 to 300 | 3000 to 30000 | 25 to 50 | – | CN[C@@H](C)C(=O)N[C@H](C(=O)N1CCN(C(=O)c2c(C)c3cc(F)ccc3n2CC(=O)N2CCC[C@H]2COc2cc(CN3CCC(Oc4ccnc5ccsc45)CC3)on2)CC1)C1CCCCC1 [Example 39, (S)-N-((S)-1-cyclohexyl-2-(4-(5-fluoro-3-methyl-1-(2-oxo-2-((S)-2-(((5-((4-(thieno[3,2-b]pyridin-7-yloxy)piperidin-1-yl)methyl)isoxazol-3-yl)oxy)methyl)pyrrolidin-1-yl)ethyl)-1H-indole-2-carbonyl)piperazin-1-yl)-2-oxoethyl)-2-(methylamino)propanamide]
9 | 300 to 1000 | 3000 to 30000 | 25 to 50 | – | CN[C@@H](C)C(=O)N[C@H](C(=O)N1CCN(C(=O)c2c(Cl)c3cc(F)ccc3n2CC(=O)N2CCC[C@H]2COc2cc(CN3CCC(Oc4ccnc5ccsc45)CC3)on2)CC1)C1CCCCC1 [Example 40, (S)-N-((S)-2-(4-(3-chloro-5-fluoro-1-(2-oxo-2-((S)-2-(((5-((4-(thieno[3,2-b]pyridin-7-yloxy)piperidin-1-yl)methyl)isoxazol-3-yl)oxy)methyl)pyrrolidin-1-yl)ethyl)-1H-indole-2-carbonyl)piperazin-1-yl)-1-cyclohexyl-2-oxoethyl)-2-(methylamino)propanamide]
10 | 300 to 1000 | 3000 to 30000 | < 25 | – | CN[C@@H](C)C(=O)N[C@H](C(=O)N1CCN(C(=O)c2c(Cl)c3ccccc3n2CC(=O)N(C)CCOCCOCCOCCOc2cc(CN3CCC(Oc4ccnc5ccsc45)CC3)on2)CC1)C1CCCCC1 [Example 32, (S)-N-((S)-2-(4-(3-chloro-1-(3-methyl-2-oxo-14-((5-((4-(thieno[3,2-b]pyridin-7-yloxy)piperidin-1-yl)methyl)isoxazol-3-yl)oxy)-6,9,12-trioxa-3-azatetradecyl)-1H-indole-2-carbonyl)piperazin-1-yl)-1-cyclohexyl-2-oxoethyl)-2-(methylamino)propanamide]
11 | 300 to 1000 | 3000 to 30000 | 25 to 50 | – | CN[C@@H](C)C(=O)N[C@H](C(=O)N1CCN(C(=O)c2c(Cl)c3cc(F)ccc3n2CC(=O)N(C)CCOCCOCCOCCOc2cc(CN3CCC(Oc4ccnc5ccsc45)CC3)on2)CC1)C1CCCCC1 [Example 34, (S)-N-((S)-2-(4-(3-chloro-5-fluoro-1-(3-methyl-2-oxo-14-((5-((4-(thieno[3,2-b]pyridin-7-yloxy)piperidin-1-yl)methyl)isoxazol-3-yl)oxy)-6,9,12-trioxa-3-azatetradecyl)-1H-indole-2-carbonyl)piperazin-1-yl)-1-cyclohexyl-2-oxoethyl)-2-(methylamino)propanamide]
